The experiment deals with A431 tumor. The experiment in a line: A431 tumor model in T-cell deficient Nu mice. Particulars: i.v. at 6, 8, 10 days post-inoculation.

Turning to `COc1cccc2c1C(=O)c1c(O)c3c(c(O)c1C2=O)C[C@@](O)(C(=O)CO)C[C@@H]3O[C@H]1C[C@H](N)[C@@H](O)[C@H](C)O1` [free EPI, epirubicin], the “effect on tumor growth” value is “slightly reduced the rate of tumor growth”.

The record behind these values is patent US20220362163A1, “METHODS AND COMPOSITIONS FOR CANCER TREATMENT USING NANOPARTICLES CONJUGATED WITH MULTIPLE LIGANDS FOR BINDING RECEPTORS ON NK CELLS” (The University of North Carolina at Chapel Hill, priority 2019, published 2022).
